Here are results for 7 compounds from patent publication US9733236B2, “Methods for determining the effect of an agent on tissue stem cells” (priority 2014, dated 2017).

For data set [1] the following is noted: clinical effects of the known drug; cited from earlier work.
Data set [2] has as its system tissue stem cells, transient cells. As to conditions: cell kinetics type the agent acts on; positive control agents; cited from earlier work.
Data set [3] relates to human liver stem cell-enriched cultures. The data set is described as follows: Serial culture of human liver stem cell strains with xanthosine (cumulative population doublings). It counts as cell-based. Conditions: FIG. 14A. From the text:
Using a pre-existing dataset developed with control human mini-tissue cultures and cultures treated with the purine nucleoside xanthosine as the test agent, we have validated the ability to use basic cell culture data, described in the methods herein, to detect effects on liver tissue stem cells. […] We used xanthosine as the agent to expand human liver stem cell strains and to produce human liver mini-tissues. […] Thus, culture systems of cells comprising heterogeneous cell population of stem, transient, and differentiated cells can be used to evaluate the activity of a test agent against tissue stem cells by using the methods described herein.
As an initial test of this ability, we used existing data sets from serial culture of our human liver stem cell strains.^14,15 Because these analyses were not ideally developed for the PSCK computer simulation format, they represented a more challenging validation.
The validation agent used was xanthosine, a purine nucleoside that we have shown independently to induce tissue stem cells to switch from asymmetric self-renewal divisions to symmetric divisions that lead to self-replication.

Another data set relates to tissue stem cells. Conditions: in vitro; known in the art; cited from earlier work.

“Also recorded” adds a separate entry of the source. Where a name gives a salt, the structure may show the parent alone.

As to `O=P1(N(CCCl)CCCl)NCCCO1` (stereo not drawn) [cyclophosphamide], in data set [1], the “Clinical Effects” value is recorded as “Cytoxan ®; extremely myelosuppressive”. Also, the “Cell-type Specificity” value in data set [2] is “SC and TC”.

For the compound `CC(=O)[C@]1(O)Cc2c(O)c3c(c(O)c2[C@@H](O[C@H]2C[C@H](N)[C@H](O)[C@H](C)O2)C1)C(=O)c1ccccc1C3=O` [idarubicin], the “Clinical Effects” value in data set [1] was “Targets hematopoietic progenitors”.

Take `Cc1ccc(NC(=O)c2ccc(CN3CCN(C)CC3)cc2)cc1Nc1nccc(-c2cccnc2)n1` [imatinib mesylate]: the “Cell-type Specificity” value in data set [2] is recorded as “TC^b”.

Regarding `Cc1ccc(C(=O)Nc2ccc(CN3CCN(C)CC3)c(C(F)(F)F)c2)cc1C#Cc1cnc2cccnn12` [ponatinib], in data set [1], the “Clinical Effects” value is on record as “Inclusig ®; myelosuppressive”.

As for `CS(=O)(=O)c1ccc(C2=C(c3ccccc3)C(=O)OC2)cc1` [refecoxib], in data set [1], the “Clinical Effects” value was “Vioxx ®; idiosyncratic life-threatening toxicity”. Further, in data set [2], the “Cell-type Specificity” value was “SC and TC”.

Turning to `Cn1cncc1[C@@](N)(c1ccc(Cl)cc1)c1ccc2c(c1)c(-c1cccc(Cl)c1)cc(=O)n2C` [tipifarnib], the “Clinical Effects” value in data set [1] is recorded as “Highly toxic with myelosuppression”.

As for `O=c1[nH]c(=O)c2ncn([C@@H]3O[C@H](CO)[C@@H](O)[C@H]3O)c2[nH]1` [xanthosine], the “proliferative rate and extent of human liver stem cell serial cultures” value in data set [3] (experimental data) was “increase the proliferative rate and extent”. In data set [3] (xanthosine-supplemented culture, control arrests after less than 30 population doublings), the “population doublings reached in serial culture” value was “greater than 80 population doublings”. Besides, the “tissue stem cell self-replication” value with tissue stem cells was “increases self-replication by adult tissue stem cells; also recorded: (In vitro, increases tissue SC self-replication)^1-5”. For the same compound, the “Cell-type Specificity” value in data set [2] is recorded as “SC^a”.
